This note sets out measurements from patent publication US11752125B2, “Anti-neuroinflammatory and protective compounds in Achillea fragrantissima” (THE STATE OF ISRAEL MINISTRY OF AGRICULTURE & RURAL …, priority 2013, dated 2023).

One assay has as its system ERK 1/2. The experiment in a line: H2O2-induced ERK 1/2 phosphorylation in astrocytes (ELISA). It is filed as cell-based, rat. The conditions noted are these: H2O2 175 μM 40 min; for effect on H2O2-induced phosphorylation of ERK1/2: astrocytes preincubated 2 h. The procedure:
(§1) Astrocytes were treated with TTF 2 h before the addition of H2O2. Cells were lysed 40 minutes after the addition of H2O2 in lysis buffer supplied by PathScan sandwich ELISA kit (Cell Signaling TECHNOLOGY) according to the manufacturer's protocol. Protein concentrations in cell lysates were determined by Bradford reagent (Bio-Rad, Hercules, Calif.), and equal amounts of proteins were subjected to ELISA. To measure the amount of total and phosphoSAPK/JNK in cell lysates of astrocytes, ELISA was performed according to the manufacturer's protocol using the PathScan total SAPK/JNK sandwich ELISA kit (Cell Signaling TECHNOLOGY) and the PathScan phospho-SAPK/JNK (Thr183/Tyr185) sandwich ELISA kit (Cell Signaling TECHNOLOGY), respectively. To measure the amount of total and phospho-ERK 1/2 (i.e. phospho-p44/42 MAPK) in cell lysates of astrocytes, ELISA was performed according to the manufacturer's protocol using the PathScan total p44/42 MAPK (ERK 1/2) sandwich ELISA kit (Cell Signaling TECHNOLOGY) and the PathScan phospho-p44/42 MAPK (Thr202/Tyr204) sandwich ELISA kit (Cell Signaling TECHNOLOGY), respectively. To measure the amount of total and phospho-MEK1 in cell lysates of astrocytes, ELISA was performed according to the manufacturer's protocol using the PathScan total MEK1 sandwich ELISA kit (Cell Signaling TECHNOLOGY) and the PathScan phospho-MEK1 (Ser217/221) sandwich ELISA kit (Cell Signaling TECHNOLOGY), respectively. […] The optical density was determined at 450 nm using a microplate reader.
(§2) 1. […] Determine the optical density at 450 nm using a microplate reader.
(§3) Astrocytes were treated with 175 μM of H2O2 for 40 min following preincubation with TTF for 2 h. The levels of phosphorylated and total SAPK/JNK (FIG. 3A), MEK1 (FIG. 3B) and ERK 1/2 (FIG. 3C) were measured by ELISA. […]
For orientation: An ELISA detects its analyte on a solid surface through an enzyme-linked reagent.

Assay [1] deals with MEK1. The experiment in a line: H2O2-induced MEK1 phosphorylation in astrocytes (ELISA). The following applies: H2O2 175 μM 40 min; for effect on H2O2-induced phosphorylation of MEK1: astrocytes preincubated 2 h. It is filed as cell-based, rat. The protocol: as §1, §2, §3
The subject of assay [2] is MEK1. The experiment in a line: Aβ25-35-induced MEK1 phosphorylation in N2a cells (ELISA). Type of assay: cell-based. The following applies: concomitant treatment 30-40 min. The procedure:
7. Measure the amount of total and phosphorylated MEK1 in cell lysates of N2a cells, by ELISA using the PathScan total MEK1 sandwich ELISA kit (Cell Signaling TECHNOLOGY) or the PathScan phosoho-MEK1 (Ser217/221) sandwich ELISA kit (Cell Signaling TECHNOLOGY), respectively. 8. Determine the optical density at 450 nm using a microplate reader.
N2a cells were treated concomitantly with Aβ25-35 and TTF for 30 min. Cells were extracted and the levels of phosphorylated or total MEK1 were determined by specific ELISA kits. The results are the mean±SEM of two different experiments for phosphoMEK1 (n=4) (see FIG. 12A) and of one experiment for total MEK1 (n=2) (see FIG. 12B).
N2a cells were treated concomitantly with Aβ25-35 and AcA for 40 min. Cells were extracted and the levels of phosphorylated or total MEK1 were determined by specific ELISA kits. The results are the mean±SEM of one experiment (n=2).
N2a cells were treated concomitantly with A25-35 and memantine for 30 min. Cells were extracted and the levels of phosphorylated or total MEK1 were determined by specific ELISA kits. The results are the mean±SEM of one experiment (n=2).

For `COc1cc(-c2oc3cc(OC)c(OC)c(O)c3c(=O)c2O)ccc1O` [TTF, 3,5,4′-trihydroxy-6,7,3′-trimethoxyflavone], the “inhibition of H2O2-induced phosphorylation of ERK 1/2” value with ERK 1/2 (astrocytes pretreated 2 h, total ERK 1/2 not affected) amounted to 30%. Further, the “inhibition of H2O2-induced phosphorylation of MEK1” value in the assay with MEK1 [1] (astrocytes pretreated 2 h, total MEK1 not affected) is given as 27%. The “effect on Aβ25-35-induced phosphorylation of MEK1” value in the assay with MEK1 [2] was “significantly inhibited”.
In the case of `C=C1CCC2=C(CO)C(=O)O[C@H]2/C=C(\C)[C@H](OC(C)=O)CC1=O` [achillolide A], the “effect on H2O2-induced phosphorylation of ERK1/2” value in the assay on ERK 1/2 is listed as “inhibitory effect”. Further, the “effect on H2O2-induced phosphorylation of MEK1” value in the assay on MEK1 [1] was “inhibitory effect”. Also, the “effect on Aβ25-35-induced phosphorylation of MEK1” value in the assay with MEK1 [2] is on record as “does not affect”.
For `CC12CC3CC(C)(C1)CC(N)(C3)C2` [memantine, reference compound], the “effect on H2O2-induced phosphorylation of ERK1/2” value in the assay with ERK 1/2 is “inhibitory effect”. In addition, the “effect on H2O2-induced phosphorylation of MEK1” value in the assay with MEK1 [1] is reported as “inhibitory effect”. Besides, the “effect on Aβ25-35-induced phosphorylation of MEK1” value in the assay with MEK1 [2] is recorded as “down-regulates”.
